From article PMC4389562, “Antigiardial activity of novel triazolyl-quinolone-based chalcone derivatives: when oxygen makes the difference” (Frontiers in Microbiology, 2015)
Read-outs that look alike come from different tables or passages of the source.

What was measured:
Caco-2 cells = assay: Counter-screen on Caco-2 cells, ATP level by luminescence (ATPlite), 48 h incubation; assay type: cell-based, human; conditions: atmospheric O2, 5% CO2, 48 h, 37 °C
Procedure: Trophozoites of G. intestinalis strain WB clone C6 (ATCC No. 50803TM) were cultured axenically at 37^∘C in 25-cm^2 flasks containing Diamond’s TYI-S-33 medium supplemented with 10% bovine calf serum, 1 mg/mL bovine bile, 0.1 g/L streptomycin and 100 U/mL penicillin. […] Human epithelial colorectal adenocarcinoma (Caco-2) cells were grown in 25-cm^2 flasks in EMEM supplemented with 1% (v/v) non-essential amino acids, 2 mM glutamine, 5% (v/v) fetal bovine serum, 0.1 g/L streptomycin, and 100 U/mL penicillin.
Cells were detached with 0.5% trypsin-EDTA and seeded in sterile 96-well white clear-bottom plates at the same density of Giardia trophozoites and at increasing concentration of the compound to be tested, as described above. The assays were carried out exactly as reported for the Giardia trophozoites, except that the plates were incubated (still at 37^∘C) at atmospheric O2 level, 5% CO2, and 95% humidity. Each drug concentration was tested in at least seven replicates. MTZ was used as an internal […] control in the assay. Following 48 h incubation with each compound, according to the manufacturer instructions, 100 μL of the ATPlite^TM luminescence assay system (Perkin Elmer) was added to each well for one-step lysis and ATP level detection by luminescence.
Luminometric data were calibrated using ATP standard curves and normalized to the ATP level measured in control DMSO-treated cells (taken as 100%). The measured ATP level percentage was plotted as a function of the compound concentration and the half-maximal inhibitory concentration (IC50) was obtained by fitting the resulting titration profile to the Hill equation ([Goutelle et al., 2008]). The selectivity index (SI) of the compounds was then calculated as the ratio between the IC50 value measured on human cells over the value determined on Giardia trophozoites (SI = IC50,Caco-2/IC50,Giardia).
Selectivity of the newly synthesized compounds toward Giardia was assessed by running a counter-screen on human epithelial Caco-2 cells. […] This allowed us to calculate the compounds SI, defined as the ratio between the IC50 value measured on human cells over the value determined on Giardia trophozoites.

[1] = system: Giardia intestinalis trophozoites; assay: Drug susceptibility of Giardia trophozoites, ATP level by luminescence (BacTiter-Glo), 48 h incubation, anaerobic or microaerobic; assay type: cell-based, Giardia intestinalis strain WB clone C6; conditions: for IC50: 48 h, 37 °C, ATP level; for Selectivity (IC50,Caco/IC50,Giardia) Microaerobiosis / Selectivity (IC50,Caco/IC50,Giardia) Anaerobiosis: SI = IC50,Caco-2/IC50,Giardia; for selectivity ratio at 48 h: human (Caco-2 cells) versus Giardia intestinalis, Caco-2, SI = IC50,Caco-2/IC50,Giardia
Procedure: Trophozoites of G. intestinalis strain WB clone C6 (ATCC No. 50803TM) were cultured axenically at 37^∘C in 25-cm^2 flasks containing Diamond's TYI-S-33 medium supplemented with 10% bovine calf serum, 1 mg/mL bovine bile, 0.1 g/L streptomycin and 100 U/mL penicillin. Typically, 50 ml medium was inoculated with 25 × 10^6 cells and after 2 days cells were harvested by chilling the flasks on ice for 30 min for drug susceptibility assays. […] The assays were performed following the procedure described in [Bahadur et al. (2014)], using sterile 96-well white clear-bottom plates. […] Each drug concentration was tested in at least six replicates. MTZ was used as an internal positive control in the assay. The microtiter plates were then incubated at 37^∘C under anaerobic or microaerobic conditions, ensured by the Anaerocult® A or the Anaerocult® […] (Merck), respectively. […] Following 48 h incubation with the compound to be tested, 100 μL of the BacTiter-Glo^TM Microbial Cell Viability Assay System reagent (Promega) was added to each well for one-step lysis and ATP level detection. Plates were then incubated at room temperature for 15 min and ATP levels finally detected by luminescence on a plate reader (Wallac Victor3 1420 Multilabel Counter, PerkinElmer). Luminometric data were calibrated using ATP standard curves and normalized to the ATP level measured in control DMSO-treated cells (taken as 100%). The measured ATP level percentage was plotted as a function of the compound concentration and the half-maximal inhibitory concentration (IC50) was obtained by fitting the resulting titration profile to the Hill equation ([Goutelle et al., 2008]). The selectivity index (SI) of the compounds was then calculated as the ratio between the IC50 value measured on human cells over the value determined on Giardia trophozoites (SI = IC50,Caco-2/IC50,Giardia). The antigiardial activity of the novel compounds 23-67 was tested under both anaerobic and microaerobic conditions. According to ([Dunn et al., 2010]; [Bahadur et al., 2014]), susceptibility of Giardia trophozoites to increasing concentrations of each compound was assessed based on ATP level determination by luminescence. Dose-response curves for each compound were obtained after 48 h-incubation and compared to the data collected under identical conditions with MTZ, the drug of choice for treatment of giardiasis. […] Typical dose-response curves are shown in Figure 2, whereas the IC50 values measured for the synthetic compounds and MTZ under anaerobic and microaerobic conditions are reported in Table 1. […] Under anaerobic conditions, 18 out of the 45 synthetic compounds were as effective as MTZ or more under identical conditions (see Table 1).

[2] = Giardia duodenalis, anaerobic conditions (Anaerocult A), read-out: Giardia (anaerobiosis) IC50
[3] = Giardia duodenalis, microaerobic conditions (~5% O2, Anaerocult C), read-out: Giardia (microaerobiosis) IC50
[4] = anaerobic conditions (Anaerocult A), read-out: Giardia (anaerobiosis) IC50
[5] = microaerobic conditions (~5% O2, Anaerocult C), read-out: Giardia (microaerobiosis) IC50
[6] = Giardia under anaerobiosis, read-out: Selectivity (IC50,Caco/IC50,Giardia) Anaerobiosis
[7] = Giardia under microaerobiosis, read-out: Selectivity (IC50,Caco/IC50,Giardia) Microaerobiosis

Row | SMILES | IC50 (Caco-2 cells; Homo sapiens, Caco-2, 48 h) | melting point | IC50 [1, 2] | IC50 [1, 3] | IC50 (Caco-2 cells) | Selectivity (IC50,Caco/IC50,Giardia) Microaerobiosis ([1]; Giardia under microaerobiosis) | IC50 [1, 4] | IC50 [1, 5] | selectivity ratio at 48 h [1, 6] | selectivity ratio at 48 h [1, 7] | Selectivity (IC50,Caco/IC50,Giardia) Anaerobiosis ([1]; Giardia under anaerobiosis) | fold more efficient than MTZ against Giardia ([1]; anaerobic conditions, relative to MTZ)
1 | COc1ccc(-n2cc(Cn3c(=O)c(/C=C/C(=O)c4ccccc4F)cc4ccccc43)nn2)cc1 [Compound 23] | ≥ 100 µM | 215 to 217 °C | ≥ 100 µM | ≥ 20 µM | – | – | – | – | – | – | – | –
2 | COc1ccc(-n2cc(Cn3c(=O)c(/C=C/C(=O)c4cccc(F)c4)cc4ccccc43)nn2)cc1 [Compound 24] | – | – | – | – | ≥ 50 µM | ≥6 | ≥ 100 µM | 8.4 µM | – | – | – | –
3 | COc1ccc(-n2cc(Cn3c(=O)c(/C=C/C(=O)c4ccc(F)cc4)cc4ccccc43)nn2)cc1 [Compound 25] | ≥ 20 µM | 211 to 213 °C | 3.9 µM | 1.3 µM | – | – | – | – | ≥ 5 | ≥ 15 | – | –
4 | COc1ccc(-n2cc(Cn3c(=O)c(/C=C/C(=O)c4ccc(Cl)cc4)cc4ccccc43)nn2)cc1 [Compound 26] | ≥ 20 µM | 230 to 232 °C | 5 µM | 2.6 µM | – | – | – | – | ≥ 4 | ≥ 7 | – | –
5 | COc1ccc(-n2cc(Cn3c(=O)c(/C=C/C(=O)c4ccc(Br)cc4)cc4ccccc43)nn2)cc1 [Compound 27] | – | – | – | – | ≥ 20 µM | ≥10 | 9.6 µM | 2 µM | – | – | ≥2 | –
6 | COc1ccc(-n2cc(Cn3c(=O)c(/C=C/C(=O)c4ccc(C)cc4)cc4ccccc43)nn2)cc1 [Compound 28] | ≥ 80 µM | 213 to 215 °C | 5.4 µM | 1.5 µM | – | – | – | – | ≥ 14 | ≥ 53 | – | –
7 | COc1ccc(-n2cc(Cn3c(=O)c(/C=C/C(=O)c4ccccc4OC)cc4ccccc43)nn2)cc1 [Compound 29] | ≥ 40 µM | 210 to 212 °C | 2.2 µM | 0.4 µM | – | – | – | – | > 15 | – | – | –
8 | COc1ccc(-n2cc(Cn3c(=O)c(/C=C/C(=O)c4cccc(OC)c4)cc4ccccc43)nn2)cc1 [Compound 30] | – | – | – | – | ≥ 200 µM | ≥153 | 5.9 µM | 1.3 µM | – | – | ≥33 | –
9 | COc1ccc(C(=O)/C=C/c2cc3ccccc3n(Cc3cn(-c4ccc(OC)cc4)nn3)c2=O)cc1 [Compound 31] | ≥ 80 µM | 190 to 192 °C | ≥ 50 µM | 2 µM | – | – | – | – | – | ≥ 40 | – | –
10 | Cc1ccc(-n2cc(Cn3c(=O)c(/C=C/C(=O)c4ccccc4F)cc4ccccc43)nn2)cc1 [Compound 32] | 17.6 µM | 197 to 199 °C | 3.2 µM | 0.6 µM | – | – | – | – | 5.5 | 29.3 | – | –
11 | Cc1ccc(-n2cc(Cn3c(=O)c(/C=C/C(=O)c4cccc(F)c4)cc4ccccc43)nn2)cc1 [Compound 33] | – | – | – | – | 13.4 µM | 19,1 | 4 µM | 0.7 µM | – | – | 3,4 | –
12 | Cc1ccc(-n2cc(Cn3c(=O)c(/C=C/C(=O)c4ccc(F)cc4)cc4ccccc43)nn2)cc1 [Compound 34] | 9.4 µM | 215 to 217 °C | 3.8 µM | 1.2 µM | – | – | – | – | 2.5 | 7.8 | – | –
13 | Cc1ccc(-n2cc(Cn3c(=O)c(/C=C/C(=O)c4ccc(Cl)cc4)cc4ccccc43)nn2)cc1 [Compound 35] | 7 µM | 196 to 198 °C | 2.4 µM | 0.8 µM | – | – | – | – | 2.9 | 8.8 | – | –
14 | Cc1ccc(-n2cc(Cn3c(=O)c(/C=C/C(=O)c4ccc(Br)cc4)cc4ccccc43)nn2)cc1 [Compound 36] | ≥ 50 µM | 216 to 218 °C | 10.7 µM | 2.3 µM | – | – | – | – | ≥ 4 | ≥ 21 | – | –
15 | COc1ccccc1C(=O)/C=C/c1cc2ccccc2n(Cc2cn(-c3ccc(C)cc3)nn2)c1=O [Compound 38] | – | – | – | – | 13.7 µM | 34,3 | 2 µM | 0.4 µM | – | – | 6,9 | –
16 | COc1cccc(C(=O)/C=C/c2cc3ccccc3n(Cc3cn(-c4ccc(C)cc4)nn3)c2=O)c1 [Compound 39] | – | 192 to 194 °C | 2.9 µM | 1.3 µM | – | – | – | – | – | – | – | –
17 | O=C(/C=C/c1cc2ccccc2n(Cc2cn(-c3ccc(F)cc3)nn2)c1=O)c1ccccc1F [Compound 41] | – | – | – | – | 5.2 µM | 26 | 0.9 µM | 0.2 µM | – | – | 5,8 | three to fourfold
18 | Cc1ccc(C(=O)/C=C/c2cc3ccccc3n(Cc3cn(-c4ccc(F)cc4)nn3)c2=O)cc1 [Compound 46] | – | – | – | – | 6.3 µM | 15,8 | 2.5 µM | 0.4 µM | – | – | 2,5 | –
19 | COc1ccc(C(=O)/C=C/c2cc3ccccc3n(Cc3cn(-c4ccc(F)cc4)nn3)c2=O)cc1 [Compound 49] | – | – | – | – | ≥ 50 µM | ≥38 | 13 µM | 1.3 µM | – | – | ≥3 | –
20 | O=C(/C=C/c1cc2ccccc2n(Cc2cn(-c3ccc(Cl)cc3)nn2)c1=O)c1ccc(Br)cc1 [Compound 54] | – | – | – | – | ≥ 20 µM | ≥10 | 9.2 µM | 1.9 µM | – | – | ≥ 2 | –
21 | O=C(/C=C/c1cc2ccccc2n(Cc2cn(-c3ccccc3)nn2)c1=O)c1ccc(Br)cc1 [Compound 63] | – | – | – | – | ≥ 50 µM | ≥ 50 | 6.3 µM | 1 µM | – | – | ≥ 7 | –
22 | Cc1ncc([N+](=O)[O-])n1CCO [MTZ, metronidazole, reference compound] | > 100 µM | – | 3.4 µM | ≥ 25 µM | – | – | – | – | ≥ 29 | – | – | –
